Measured values as given in patent US20030153552A1, “Method of treating chemical dependency in mammals and a composition therefor” (priority 2002, published 2003).

Experiment: plasma concentration of ibogaine and its metabolite 12-hydroxy ibogamine over time after ibogaine administration to a human patient
Assay type: in vivo
Procedure: An amount of ibogaine was administered to a human patient, and the plasma concentration of both ibogaine and a metabolite thereof, 12-hydroxy ibogamine, were observed as a function of time.
FIG. 1 illustrates the result of administering a certain dosage of ibogaine to a human patient, where the plasma concentration of ibogaine is measured over time. In essence, a peak plasma concentration of about 1,100 ng/ml is observed at administration. It is also notable that at about 11 hours after ibogaine administration, plasma concentration of ibogaine diminished to less than 400 ng/ml. After about 24 hours, plasma concentration diminished to less than 200 ng/ml. Thus, ibogaine is rather quickly eliminated by the patient.
By contrast, FIG. 2 illustrates the variation of noribogaine plasma concentration with time as a metabolite from the same ibogaine administration described above. In essence, a peak plasma concentration of noribogaine of about 590 ng/ml was reached only after about 11 hours from administration. Thereafter, even at 24 hours, a plasma concentration of greater than 500 ng/ml was observed.

CC[C@H]1C[C@H]2C[C@H]3c4[nH]c5ccc(OC)cc5c4CCN(C2)C13 [ibogaine, reference compound]
peak plasma concentration of ibogaine (after ibogaine administration, (FIG. 1)): about 1,100 ng/ml
concentration at 24 h (plasma, after about 24 hours (FIG. 1)): < 200 ng/mL
concentration at 11 h (plasma, at about 11 hours after ibogaine administration (FIG. 1)): < 400 ng/mL

CC[C@H]1C[C@H]2C[C@H]3c4[nH]c5ccc(O)cc5c4CCN(C2)[C@@H]13 [noribogaine, 12-hydroxy ibogamine]
plasma half-life compared with ibogaine (after ibogaine administration): much longer plasma half-life than ibogaine
plasma concentration of noribogaine (at 24 hours, noribogaine as metabolite from ibogaine administration (FIG. 2)): greater than 500 ng/ml
time to peak plasma concentration of noribogaine (from ibogaine administration, noribogaine as metabolite (FIG. 2)): about 11 hours
peak plasma concentration of noribogaine (noribogaine as metabolite from ibogaine administration (FIG. 2)): about 590 ng/ml
